Values quoted from earlier work in patent US20100099776A1, “OILY SUSPENSION OF ATOVAQUONE” (RANBAXY LABORATORIES LIMITED, priority 2008, published 2010).

Settings: single oral dose

- dose above which absorption is dose-limited: above 750 mg
- increase of absorption by the presence of fatty food (with fatty food): about three-fold
Compound: O=C1C(O)=C([C@H]2CC[C@H](c3ccc(Cl)cc3)CC2)C(=O)c2ccccc21 [Atovaquone, 244-(4-chlorophenyl)cyclohexyl′-3-hydroxy-1,4-naphthoquinone]
